# In US20240360148A1 (SUVALENT THERAPEUTICS, INC., priority 2021, published 2024):
# How the values were obtained:
# SAE1 = SAE1 (Homo sapiens (Human), UniProt Q9UBE0+Q9UBT2); test: SAE High Throughput Biochemical Assay (HTRF), 15 min preincubation; conditions: read-out: 15 min preincubation HTRF IC50 (μM) Ave, SAE1 12.5 nM, ATP 100 μM
# How it was run: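 SAE1 (12.5 nM) was preincubated with compound for 15 min at RT in HEPES pH 7.5, 0.1% BSA, 10 mM MgCl2. The reaction was then started with SUMO-GST and UBC9-His (40 nM each) plus 100 μM ATP for 45 min. After KF stop, HTRF (anti-GST-XL665/anti-His-EuK) was read at 2 h and overnight; some compounds were tested singly at 25 micromolar as percent of control.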
# [1] = system: sumoylation levels (SUMO 2/3 conjugates) in HCT-116 cells; test: HCT-116 4 Hour Cell Assay (Western, SUMO 2/3 conjugates); type: cell-based; conditions: Homo sapiens, HCT-116, 4 h, 4 h treatment, Anti-Sumo 2-3 immunoblot, read-out: HCT-116 Western 4 h IC50 (μM) Ave
# Method: This protocol describes the procedures used to assess the effects of compounds of interest on sumoylation levels. Immunoblot of SUMO 2/3 conjugates are performed and IC50 curves are generated upon quantification of sumoylations bands. HCT-116 cells are seeded in a 12 well plate (500,000 cells/well). The following day the cells are treated with compounds of interest (resuspended in DMSO) for 4 hours (11 concentrations with a three-fold dilution; starting concentration 25 μM) Following 4 hours of incubation the cells are washed with ice cold PBS 1×and protein extraction is performed with RIPA buffer supplemented with phosphatases and proteases inhibitors, 25 mM of NEM and 50 units/mL of Benzonase. Samples undergo centrifugation at 13,000 RPM, 4° C., for 10 minutes and the supernatant is collected. Protein quantification is performed using BCA. Non-Reducing Laemmli Buffer is added to the samples. Samples are heated at 75° C. for 10 minutes, and are centrifuged for 3 minutes at 9000 RPM Nupage 4-12% Bis Tris gels and 1× MOPS buffer (Fisher Scientific)+1× NuPAGE Antioxidant (Invitrogen) are used to perform the SDS-PAGE gel electrophoresis (20 to 40 μg of proteins are loaded in the gels). Proteins are then transferred to PVDF membranes and the level of total proteins are measured by staining with Revert Total Protein Stain and the fluorescent bands are acquired using the LI-COR FC (700 nm for 1 min) Membranes are blocked for 5 minutes with Bio-Rad Blocking Buffer and are subsequently incubated over night at 4° C. with Anti-Sumo 2-3 mAb (M BL #M114-3, 1:1000 in Bio-Rad Blocking Buffer, 0.2% Tween 20) Membranes are washed with 1×TBS-T (3 times for 5 minutes) and sumoylation is detected using Li-cor IRDye 800CW Goat anti-Mouse IgG secondary antibody (1:10,000 dilution) upon 1 hour of incubation in blocking buffer with 0.2% Tween 20 and 0.01% SDS. After the incubation, the membranes are washed with 1×TBS-T (3 times for 5 minutes). To visualize the fluorescent bands the membranes are scanned with LI-COR FC (700 nm for 1 min and […] for 2 mins). Sumoylation levels are quantified upon normalization with total protein levels, using the LI-COR Image Studio Lite 5.2 Software.
# Sequence of SAE1 (Q9UBE0 whole entry): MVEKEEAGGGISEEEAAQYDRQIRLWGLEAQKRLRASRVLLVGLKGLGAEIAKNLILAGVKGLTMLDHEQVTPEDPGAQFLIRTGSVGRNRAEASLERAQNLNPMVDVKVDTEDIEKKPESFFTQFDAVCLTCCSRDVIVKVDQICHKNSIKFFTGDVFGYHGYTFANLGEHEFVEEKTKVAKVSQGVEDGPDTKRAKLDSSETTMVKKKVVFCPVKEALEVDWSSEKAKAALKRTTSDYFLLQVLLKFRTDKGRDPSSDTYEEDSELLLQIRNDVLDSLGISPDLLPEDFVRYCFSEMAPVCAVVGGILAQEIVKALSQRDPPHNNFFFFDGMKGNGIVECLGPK
# Sequence of SAE1 (Q9UBT2 whole entry): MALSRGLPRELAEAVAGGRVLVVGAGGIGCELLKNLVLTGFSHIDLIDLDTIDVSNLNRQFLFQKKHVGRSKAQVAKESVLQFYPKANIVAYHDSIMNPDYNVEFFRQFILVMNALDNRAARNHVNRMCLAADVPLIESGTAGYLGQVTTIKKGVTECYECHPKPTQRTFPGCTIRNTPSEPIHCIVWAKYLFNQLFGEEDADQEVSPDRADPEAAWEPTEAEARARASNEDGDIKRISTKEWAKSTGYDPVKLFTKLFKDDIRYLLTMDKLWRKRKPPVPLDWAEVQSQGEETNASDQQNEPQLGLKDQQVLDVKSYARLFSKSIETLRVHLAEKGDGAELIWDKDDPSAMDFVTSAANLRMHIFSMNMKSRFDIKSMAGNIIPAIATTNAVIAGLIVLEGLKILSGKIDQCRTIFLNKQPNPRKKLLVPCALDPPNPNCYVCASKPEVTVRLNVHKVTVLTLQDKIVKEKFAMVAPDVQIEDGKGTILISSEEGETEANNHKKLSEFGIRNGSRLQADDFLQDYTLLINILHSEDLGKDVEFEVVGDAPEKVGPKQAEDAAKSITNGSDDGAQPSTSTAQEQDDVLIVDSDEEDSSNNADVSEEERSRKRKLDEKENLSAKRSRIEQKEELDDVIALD
IC50 [1] [µM],SMILES,IC50 (SAE1) [µM]
0.321,"C#CCn1cc(-c2ccccc2[C@@H]2CN(C(=O)/C=C/CN(C)C)Cc3sc(C#N)cc32)c(C(F)(F)F)n1 [Example 155, (S, E)-6-(4-(Dimethylamino)but-2-enoyl)-4-(2-(1-(prop-2-yn-1-yl)-3-(trifluoromethyl)-1 H-pyrazol-4-yl)phenyl)-4,5,6,7-tetrahydrothieno[2,3-c]pyridine-2-carbonitrile]",3.52
1.2,"CCn1cc(-c2ccccc2[C@@H]2CN(C(=O)C#CCN)Cc3sc(C#N)cc32)c(C(F)(F)F)n1 [Example 135, (S)-6-(4-Aminobut-2-ynoyl)-4-(2-(1-ethyl-3-(trifluoromethyl)-1H pyrazol-4-yl)phenyl)-4,5,6,7-tetrahydrothieno[2,3-c]pyridine-2-carbonitrile]",0.51
0.878,"CCn1cc(C2=C(C3CN(C(=O)/C=C/CN(C)C)Cc4sc(C#N)cc43)CCCC2)c(C(F)(F)F)n1 (centres unmarked) [Example 181, (E)-6-(4-(Dimethylamino)but-2-enoyl)-4-(2-(1-ethyl-3-(trifluoromethyl)-1 H-pyrazol-4-yl)cyclohex-1-en-1-yl)-4,5,6,7-tetrahydrothieno[2,3-c]pyridine-2-carbonitrile]",3.16
0.402,CCn1cc(-c2ccccc2C2CN(C(=O)/C=C/CN(C)C)Cc3sc(C#N)c(C)c32)c(C(F)(F)F)n1 (centres unmarked) [Compound 232],1.36
0.6,"CCn1cc(-c2ccccc2[C@@H]2CN(C(=O)/C=C/[C@@H]3CCCCN3)Cc3sc(C#N)cc32)c(C(F)(F)F)n1 [Example 115, (S)-4-(2-(1-Ethyl-3-(trifluoromethyl)-1H pyrazol-4-yl)phenyl)-6-((E)-3-((S)-piperidin-2-yl)acryloyl)-4,5,6,7-tetrahydrothieno[2,3-c]pyridine-2-carbonitrile]",1.95
0.12,"CCn1cc(-c2ccccc2[C@@H]2CN(C(=O)/C=C/C(F)F)Cc3sc(C#N)cc32)c(C(F)(F)F)n1 [Example 21, (S, E)-6-(4,4-difluorobut-2-enoyl)-4-(2-(1-ethyl-3-(trifluoromethyl)-1H-pyrazol-4-yl)phenyl)-4,5,6,7-tetrahydrothieno[2,3-c]pyridine-2-carbonitrile]",–
0.543,"CCn1cc(-c2ccccc2[C@@H]2CN(C(=O)/C=C/CN)Cc3sc(C#N)cc32)c(C(F)(F)F)n1 [Example 125, (S, E)-6-(4-Aminobut-2-enoyl)-4-(2-(1-ethyl-3-(trifluoromethyl)-1 H-pyrazol-4-yl)phenyl)-4,5,6,7-tetrahydrothieno[2,3-c]pyridine-2-carbonitrile]",1.23
2.69,"CCn1cc(-c2ccccc2[C@@H]2CN(C(=O)C#CC3(N)CCCC3)Cc3sc(C#N)cc32)c(C(F)(F)F)n1 [Example 138, (S)-6-(3-(1-Aminocyclopentyl)propioloyl)-4-(2-(1-ethyl-3-(trifluoromethyl)-1 H-pyrazol-4-yl)phenyl)-4,5,6,7-tetrahydrothieno[2,3-c]pyridine-2-carbonitrile]",0.5
0.324,"CCn1cc(-c2ccccc2[C@@H]2CN(C(=O)/C=C/[C@@H]3CCC(C)(C)N3)Cc3sc(C#N)cc32)c(C(F)(F)F)n1 [Example 79, (S)-6-((E)-3-((S)-5,5-Dimethylpyrrolidin-2-yl)acryloyl)-4-(2-(1-ethyl-3-(trifluoromethyl)-1H pyrazol-4-yl)phenyl)-4,5,6,7-tetrahydrothieno[2,3-c]pyridine-2-carbonitrile]",1.77
1.29,CCn1cc(-c2c(C)cccc2[C@@H]2CN(C(=O)/C=C/CN(C)C)Cc3sc(C#N)cc32)c(C(F)(F)F)n1 [Compound 242],2.32
0.587,"CN(C)CC#CC(=O)N1Cc2sc(C#N)cc2[C@H](c2ccccc2-c2c[nH]nc2C(F)(F)F)C1 [Example 151, (S)-6-(4-(Dimethylamino)but-2-ynoyl)-4-(2-(3-(trifluoromethyl)-1 H-pyrazol-4-yl)phenyl)-4,5,6,7-tetrahydrothieno[2,3-c]pyridine-2-carbonitrile]",0.18
0.0822,"Cc1c(C#N)sc2c1[C@H](c1cccc(F)c1-c1cn(C)nc1C(F)(F)F)CN(C(=O)/C=C/[C@@H]1CCCN1)C2 [Example 251, (S)-4-(3-fluoro-2-(1-methyl-3-(trifluoromethyl)-1 H-pyrazol-4-yl)phenyl)-3-methyl-6-((E)-3-((S)-pyrrolidin-2-yl)acryloyl)-4,5,6,7-tetrahydrothieno[2,3-c]pyridine-2-carbonitrile]",0.11
1,C=CC(=O)N1Cc2sc(C#N)c(C)c2C(c2ccccc2-c2cn(CC)nc2C(F)(F)F)C1 (centres unmarked) [Compound 231],0.16
2.59,"C=C(C(=O)N1Cc2sc(C#N)cc2[C@H](c2ccccc2-c2cn(CC)nc2C(F)(F)F)C1)C(F)(F)F [Example 60, (S)-4-(2-(1-Ethyl-3-(trifluoromethyl)-1 H pyrazol-4-yl)phenyl)-6-(2-(trifluoromethyl)acryloyl)-4,5,6,7-tetrahydrothieno[2,3-c]pyridine-2-carbonitrile]",1.36
–,CCn1cc(-c2ccccc2[C@@H]2CN(C(=O)/C=C/CCN(C)C)Cc3sc(C#N)cc32)c(C(F)(F)F)n1 [Example 16],18.1
–,"CCn1cc(-c2ccccc2[C@@H]2CN(C(=O)/C=C/[C@@H](COC)NC)Cc3sc(C#N)cc32)c(C(F)(F)F)n1 [Example 85, (S)-4-(2-(1-Ethyl-3-(trifluoromethyl)-1 H-pyrazol-4-yl)phenyl)-6-((S, E)-5-methoxy-4-(methylamino)pent-2-enoyl)-4,5,6,7-tetrahydrothieno[2,3-c]pyridine-2-carbonitrile]",> 25
–,"CCn1cc(-c2ccccc2[C@@H]2CN(C(=O)/C=C/C(C)(C)NC)Cc3sc(C#N)cc32)c(C(F)(F)F)n1 [Example 38, (S, E)-4-(2-(1-ethyl-3-(trifluoromethyl)-1 H-pyrazol-4-yl)phenyl)-6-(4-methyl-4-(methylamino)pent-2-enoyl)-4,5,6,7-tetrahydrothieno[2,3-c]pyridine-2-carbonitrile]",> 25
–,"CCn1cc(-c2ccccc2[C@@H]2CN(C(=O)/C=C/C(C)(C)N)Cc3sc(C#N)cc32)c(C(F)(F)F)n1 [Example 37, (S, E)-6-(4-amino-4-methylpent-2-enoyl)-4-(2-(1-ethyl-3-(trifluoromethyl)-1 H-pyrazol-4-yl)phenyl)-4,5,6,7-tetrahydrothieno[2,3-c]pyridine-2-carbonitrile]",> 25
–,"CCn1cc(-c2c(C3CN(C(=O)/C=C/CN(C)C)Cc4sc(C#N)cc43)ccc(F)c2Cl)c(C(F)(F)F)n1 (centres unmarked) [Example 187, (E)-4-(3-Chloro-2-(1-ethyl-3-(trifluoromethyl)-1 H-pyrazol-4-yl)-4-fluorophenyl)-6-(4-(dimethylamino)but-2-enoyl)-4,5,6,7-tetrahydrothieno[2,3-c]pyridine-2-carbonitrile]",8.1
–,"CN(C)C/C=C/C(=O)N1Cc2sc(C#N)cc2[C@H](c2ccccc2-c2cn(-c3ccncc3F)nc2C(F)(F)F)C1 [Example 157, (S,E)-6-(4-(Dimethylamino)but-2-enoyl)-4-(2-(1-(3-fluoropyridin-4-yl)-3-(trifluoromethyl)-1H pyrazol-4-yl)phenyl)-4,5,6,7-tetrahydrothieno[2,3-c]pyridine-2-carbonitrile]",18.6
–,"C=C(CO)C(=O)N1Cc2sc(C#N)cc2[C@H](c2ccccc2-c2cn(CC)nc2C(F)(F)F)C1 [Example 62, (S)-4-(2-(1-Ethyl-3-(trifluoromethyl)-1 H pyrazol-4-yl)phenyl)-6-(2-(hydroxymethyl)acryloyl)-4,5,6,7-tetrahydrothieno[2,3-c]pyridine-2-carbonitrile]",> 25
–,"CCn1cc(-c2ccccc2[C@@H]2CN(C(=O)/C=C/[C@H](N)CO)Cc3sc(C#N)cc32)c(C(F)(F)F)n1 [Example 73, (S)-6-((S,E)-4-Amino-5-hydroxypent-2-enoyl)-4-(2-(1-ethyl-3-(trifluoromethyl)-1H pyrazol-4-yl)phenyl)-4,5,6,7-tetrahydrothieno[2,3-c]pyridine-2-carbonitrile]",21.9
